According to patent publication US6369208B1, “Capped synthetic RNA, analogs, and aptamers” (Merck & Co., Inc., priority 1995, dated 2002):

Tests used:
influenza endonuclease [1] = molecular target: T1, influenza endonuclease (Influenza A virus, UniProt P03428+P03433)
influenza endonuclease [2] = molecular target: T1, influenza endonuclease; remark: listed apart in the source
influenza endonuclease [3] = molecular target: T1, influenza endonuclease; remark: listed apart in the source

For “m^7GpppG(2′-OMe)UAUUAAUA(3′-dA)-3′ [SEQ.ID.NO.:3]”, the “inhibition of influenza endonuclease (in words)” value (influenza endonuclease [1]) was “potent inhibitor of influenza endonuclease”, the “binding of the labeled capped 10-mer displaced by competition with unlabeled competitor” value (influenza endonuclease [2]) was 95% and the saturation amplitude (influenza endonuclease [2]) was 5.2 nM.

In the case of “pppG(2′-OMe)UAUUAAUA(3′dA)-3′ [SEQ.ID.NO.:21]”, the “binding of the labeled capped 10-mer competed by unlabeled competitor” value (influenza endonuclease [2]) is reported as 10%.

For “pppG(2′-OMe)UUUUUAUUUUUAAUUUUC-3′ [SEQ.ID.NO.:4]”, the Km (influenza endonuclease [3]) was 0.4 nM and the “site of cleavage by influenza endonuclease” value (influenza endonuclease [3]) was “between the two A's at positions 13-14”.
